Reference: patent publication US20230293526A1, “METHOD FOR TREATING CANCER WITH A REVERSE TRANSCRIPTASE INHIBITOR” (PrimeFour Therapeutics, Inc., priority 2020, published 2023)

How the values were obtained:
Test in all cases: Cell proliferation Ex.3
Format in all cases: cell-based
CAKI1 = conditions: Homo sapiens, CAKI-1
PANC1 = conditions: Homo sapiens, PANC-1
NCIH358M = conditions: NCI-H358M
HS578T = conditions: Homo sapiens, Hs-578T
PC3 = conditions: Homo sapiens, PC-3
Procedure, shortened: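 Luminescent ATP read-out (CellTiterGlo) after […] compound exposure at 37 °C. Plates sat 1 h at room temperature before reagent, and signal was read about an hour later. Data were normalised to high and low controls as percent viability.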

22RV1 = conditions: Homo sapiens
MDAMB468 = conditions: Homo sapiens, MDA-MB-468
COLO205 = conditions: Homo sapiens, COLO 205
PLCPRF5 = conditions: Homo sapiens, PLC-PRF-5
A549 = conditions: Homo sapiens
TE671 = conditions: Homo sapiens, TE-671
HT29 = conditions: Homo sapiens, HT-29
NCIH82 = conditions: Homo sapiens, NCI-H82
A431 = conditions: Homo sapiens, A-431
NCI-H23 = conditions: Homo sapiens
EJ28 = conditions: Homo sapiens, EJ-28
HL-60 = conditions: Homo sapiens
MT3 = conditions: MT-3
SF268 = conditions: Homo sapiens, SF-268
DU145 = conditions: Homo sapiens, DU-145
MG63 = conditions: Homo sapiens, MG-63
PANC1005 = conditions: Homo sapiens
SW620 = conditions: Homo sapiens, SW-620
CALU6 = conditions: Homo sapiens, Calu-6
MDAMB231 = conditions: Homo sapiens, MDA-MB-231
THP-1 = conditions: Homo sapiens

Which IC50 (CAKI1; CAKI1, 72 h) does the source give for C#C[C@]1(CO)O[C@@H](n2cc(F)c(N)nc2=O)C[C@@H]1O [compound 9] here?
Its IC50 is greater than 10 µM.

What about the IC50 (CAKI1; CAKI1, 120 h) of the same molecule?
The IC50 was greater than 10 µM.

And the IC50 (CAKI1; CAKI1, 168 h)?
Its IC50 is greater than 10 µM.

And the IC50 (PANC1; PANC1, 72 h)?
Its IC50 is greater than 10 µM.

And the IC50 (PANC1; PANC1, 120 h)?
Its IC50 is greater than 10 µM.

And the IC50 (PANC1; PANC1, 168 h)?
The IC50 was greater than 10 µM.

What about the IC50 (NCIH358M; 72 h) of the same molecule?
Its IC50 is greater than 10 µM.

What about the IC50 (NCIH358M; 120 h) of the same molecule?
Its IC50 is greater than 10 µM.

And the IC50 (NCIH358M; 168 h)?
Its IC50 is 0.67 µM.

And the IC50 (HS578T; 72 h)?
The IC50 was greater than 10 µM.

And the IC50 (HS578T; 120 h)?
The IC50 was greater than 10 µM.

And the IC50 (HS578T; 168 h)?
Its IC50 is greater than 10 µM.

And the IC50 (PC3; PC3, 72 h)?
Its IC50 is greater than 10 µM.

And the IC50 (PC3; PC3, 120 h)?
The IC50 was greater than 10 µM.

And the IC50 (PC3; PC3, 168 h)?
The IC50 was greater than 10 µM.

And the IC50 (22RV1; 22Rv1, 72 h)?
The IC50 was 3.8 µM.

What about the IC50 (22RV1; 22Rv1, 120 h) of the same molecule?
The IC50 was 3.28 µM.

What about the IC50 (22RV1; 22Rv1, 168 h) of the same molecule?
Its IC50 is 3.69 µM.

And the IC50 (MDAMB468; MDAMB468, 72 h)?
Its IC50 is greater than 10 µM.

What about the IC50 (MDAMB468; MDAMB468, 120 h) of the same molecule?
The IC50 was greater than 10 µM.

And the IC50 (MDAMB468; MDAMB468, 168 h)?
The IC50 was greater than 10 µM.

And the IC50 (COLO205; COLO205, 72 h)?
The IC50 was greater than 10 µM.

And the IC50 (COLO205; COLO205, 120 h)?
The IC50 was 1.15 µM.

And the IC50 (COLO205; COLO205, 168 h)?
The IC50 was 0.87 µM.

And the IC50 (PLCPRF5; PLCPRF5, 72 h)?
The IC50 was greater than 10 µM.

And the IC50 (PLCPRF5; PLCPRF5, 120 h)?
The IC50 was greater than 10 µM.

And the IC50 (PLCPRF5; PLCPRF5, 168 h)?
The IC50 was greater than 10 µM.

What about the IC50 (A549; A549, 72 h) of the same molecule?
The IC50 was greater than 10 µM.

What about the IC50 (A549; A549, 120 h) of the same molecule?
The IC50 was greater than 10 µM.

What about the IC50 (A549; A549, 168 h) of the same molecule?
The IC50 was greater than 10 µM.

And the IC50 (TE671; TE671, 72 h)?
Its IC50 is greater than 10 µM.

And the IC50 (TE671; TE671, 120 h)?
The IC50 was greater than 10 µM.

And the IC50 (TE671; TE671, 168 h)?
The IC50 was greater than 10 µM.

What about the IC50 (HT29; HT29, 72 h) of the same molecule?
The IC50 was greater than 10 µM.

What about the IC50 (HT29; HT29, 120 h) of the same molecule?
The IC50 was greater than 10 µM.

And the IC50 (HT29; HT29, 168 h)?
Its IC50 is greater than 10 µM.

What about the IC50 (NCIH82; NCIH82, 72 h) of the same molecule?
Its IC50 is greater than 10 µM.

And the IC50 (NCIH82; NCIH82, 120 h)?
The IC50 was 9.1 µM.

And the IC50 (NCIH82; NCIH82, 168 h)?
Its IC50 is greater than 10 µM.

And the IC50 (A431; A431, 72 h)?
The IC50 was greater than 10 µM.

What about the IC50 (A431; A431, 120 h) of the same molecule?
Its IC50 is 3.18 µM.

What about the IC50 (A431; A431, 168 h) of the same molecule?
Its IC50 is 1.42 µM.

What about the IC50 (NCI-H23; NCI-H23, 72 h) of the same molecule?
The IC50 was greater than 10 µM.

And the IC50 (NCI-H23; NCI-H23, 120 h)?
Its IC50 is greater than 10 µM.

And the IC50 (NCI-H23; NCI-H23, 168 h)?
The IC50 was greater than 10 µM.

And the IC50 (EJ28; EJ28, 72 h)?
Its IC50 is greater than 10 µM.

What about the IC50 (EJ28; EJ28, 120 h) of the same molecule?
Its IC50 is greater than 10 µM.

And the IC50 (EJ28; EJ28, 168 h)?
Its IC50 is greater than 10 µM.

What about the IC50 (HL-60; HL-60, 72 h) of the same molecule?
Its IC50 is greater than 10 µM.

And the IC50 (HL-60; HL-60, 120 h)?
The IC50 was greater than 10 µM.

And the IC50 (HL-60; HL-60, 168 h)?
The IC50 was greater than 10 µM.

And the IC50 (MT3; MT3, 72 h)?
Its IC50 is greater than 10 µM.

And the IC50 (MT3; MT3, 120 h)?
Its IC50 is 3.04 µM.

And the IC50 (MT3; MT3, 168 h)?
Its IC50 is greater than 10 µM.

And the IC50 (SF268; SF268, 72 h)?
Its IC50 is greater than 10 µM.

What about the IC50 (SF268; SF268, 120 h) of the same molecule?
Its IC50 is greater than 10 µM.

What about the IC50 (SF268; SF268, 168 h) of the same molecule?
The IC50 was greater than 10 µM.

And the IC50 (DU145; DU145, 72 h)?
The IC50 was greater than 10 µM.

What about the IC50 (DU145; DU145, 120 h) of the same molecule?
Its IC50 is greater than 10 µM.

What about the IC50 (DU145; DU145, 168 h) of the same molecule?
The IC50 was greater than 10 µM.

What about the IC50 (MG63; MG63, 72 h) of the same molecule?
The IC50 was greater than 10 µM.

What about the IC50 (MG63; MG63, 120 h) of the same molecule?
Its IC50 is greater than 10 µM.

What about the IC50 (MG63; MG63, 168 h) of the same molecule?
The IC50 was greater than 10 µM.

What about the IC50 (PANC1005; Panc1005, 72 h) of the same molecule?
Its IC50 is greater than 10 µM.

What about the IC50 (PANC1005; Panc1005, 120 h) of the same molecule?
The IC50 was greater than 10 µM.

What about the IC50 (PANC1005; Panc1005, 168 h) of the same molecule?
Its IC50 is greater than 10 µM.

What about the IC50 (SW620; SW620, 72 h) of the same molecule?
The IC50 was greater than 10 µM.

What about the IC50 (SW620; SW620, 120 h) of the same molecule?
The IC50 was greater than 10 µM.

What about the IC50 (SW620; SW620, 168 h) of the same molecule?
The IC50 was greater than 10 µM.

And the IC50 (CALU6; CALU6, 72 h)?
Its IC50 is greater than 10 µM.

And the IC50 (CALU6; CALU6, 120 h)?
The IC50 was greater than 10 µM.

And the IC50 (CALU6; CALU6, 168 h)?
Its IC50 is greater than 10 µM.

And the IC50 (MDAMB231; MDAMB231, 72 h)?
The IC50 was greater than 10 µM.

What about the IC50 (MDAMB231; MDAMB231, 120 h) of the same molecule?
Its IC50 is greater than 10 µM.

And the IC50 (MDAMB231; MDAMB231, 168 h)?
Its IC50 is greater than 10 µM.

What about the IC50 (THP-1; THP-1, 72 h) of the same molecule?
The IC50 was greater than 10 µM.

What about the IC50 (THP-1; THP-1, 120 h) of the same molecule?
Its IC50 is greater than 10 µM.

And the IC50 (THP-1; THP-1, 168 h)?
Its IC50 is greater than 10 µM.
